Test results reported in patent US10226514B2, “Methods and compositions for reducing blood glucose levels” (The Children's Medical Center Corporation, priority 2011, dated 2019).

Assays:
p38 MAPK = experiment: Fasting/re-feeding of lean mice treated with p38 MAPK inhibitor; format: in vivo, mouse; settings: 2 mg/kg/day intraperitoneally three days
Method: For liver tissue, a kit from Thermo Scientific (Rockford, Ill.) was used according to the manufacturer's instruction. Liver tissues were cut into small pieces, washed with PBS, and separated from PBS by centrifugation at 500×g for 5 minutes. Collected tissues were resuspended by company-supplied CER I buffer and homogenized with a Dounce homogenizer. Homogenized tissues were vortexed and incubated on ice for 10 minutes. Following CER II buffer addition, tissues were vortexed for 5 seconds, incubated for 1 minute on ice, vortexed again, and then centrifuged for 5 minutes at maximum speed in a microcentrifuge. The supernatant (cytoplasmic fraction) was saved for later analysis. The pellets were resuspended with supplied NER buffer and undergone a series of multiple vortexing (15 seconds) and incubation on ice (10 minutes) for a total of 40 minutes. After 10-minute centrifugation, the supernatant (nuclear fraction) was collected and analyzed with immunoblotting.
Tissues were homogenized with a bench-top homogenizer (Polytron, PT2100) in ice-cold tissue lysis buffer (25 mM Tris-HCl, pH 7.4; 100 mM NaF; 50 mM Na4P207; 10 mM Na3VO4; 10 mM EGTA; 10 mM EDTA; 1% NP-40; 10 μg/ml Leupeptin; 10 μg/ml Aprotinin; 2 mM PMSF and 20 nM Okadaic acid). After homogenization, lysates were rotated for 1 h at 4° C. and then subjected to centrifugation at 13,200 rpm for 20 min at 4° C. The lipid layer was removed and the supernatant was transferred into Eppendorf tubes for centrifugation. This process was repeated for 2 times to get rid of lipid completely. Protein concentration was quantified by using Protein Assay Kit (Bio-Rad). Equivalent protein concentration in each sample was prepared and boiled at 100° C. for 5 min in Laemmli buffer. The lysates were cooled to room temperature before loading for western blot analysis.

XBP1s [1] = experiment: Co-expression of kinase constructs with XBP1s in transfected cells; format: cell-based; settings: p38 MAPK inhibitor 10 μM
Description: To unravel the molecular mechanisms underlying the above observations, several different approaches were taken to explore whether activation of JNK, which is one of the most dominant signaling elements in SAPK signaling, affects XBP1s levels and nuclear translocation. […] It is known that MAPK kinase kinase (MKK) 4 and 7 are upstream kinases responsible for JNK activation (Tournier, C., et al. (2001) Genes Dev 15:1419-1426; Brancho, D., et al. (2003) Genes Dev 17:1969-1978) and anisomycin or TNFα cannot activate JNK in MKK4 and 7 double knock out cells (MKK4,7^−/−) (Tournier, C., et al. (2001) Genes Dev 15:1419-1426; Schaeffer, H. J. & Weber, M. J. (1999) Mol Cell Biol 19:2435-2444). In order to determine whether XBP1s can be regulated by anisomycin treatment in MKK4,7^−/− cells, these cells, along with their controls, were treated with anisomycin after XBP is expression. […] Furthermore, the experiments were repeated in JNK1,2^−/− and MKK4,7^−/− cells with TNFα. […] Finally, an MKK7-JNK1 fusion protein, previously shown to be a specific activator of JNK (Lei, K., et al. (2002) Mol Cell Biol 22:4929-4942), was used to investigate whether activation of JNK alone can have effect on XBP1s.
A constitutively active form of MKK6 (MKK6Glu), one of the upstream kinases of p38 MAPK, was previously generated by mutation of Ser207 and […] to glutamate. […]

XBP1s [2] = experiment: FBS-induced XBP1s nuclear translocation in starved cells; format: cell-based, mouse; settings: 16 h starved cells, inhibitor 10 μM before 10% FBS
Method: XBP1s is generated in the liver when an animal is refed after a fasting period (Park, S. W., et al. (2010) Nature Med 16:429-437), likely mainly due to increased metabolic overloading. To create a metabolic overloading model in cells, following a 16 h starvation in medium without fetal bovine serum (FBS), cells were reincubated for 15, 30 and 60 minutes with medium containing 10% FBS, following which total and nuclear proteins or mRNA were isolated and used to analyze various parameters, including p38 MAPK activation, XBP1s nuclear migration, and splicing. When the cells were starved, then stimulated with medium containing 10% FBS, there was a robust increase in XBP1s splicing and nuclear translocation, as well as in activation of p38 MAPK (FIG. 10A). […] The same experiment was then repeated in p38α^−/− and MKK3,6^−/− cells. […] Moreover, FBS-induced XBP i s nuclear translocation was severely impaired in the MKK3,6^−/− cells (FIG. 10C).

XBP1s [3] = experiment: XBP1s protein levels in Ad-XBP1s-infected MEFs (western blot); format: cell-based, mouse
Method: (§1) MEF cells were from American Type Tissue Collection (ATCC). These cells were grown in Dulbecco's Modified Eagel Medium (DMEM) supplemented with 10% fetal bovine serum (FBS), 10 U/ml penicillin and 1 μg/ml streptomycin at 37° C. and 5% CO2. Fao cells were maintained in RPMI 1640 medium (Invitrogen) supplemented with 10% fetal bovine serum (FBS), 10 U/ml penicillin and 1 μg/ml streptomycin.
(§2) Adenovirus expressing XBP1s T48A, XBP1s S61A, XBP1s T48A/S61A and MKK6Glu were produced with ViraPower Adenoviral Expression System (Invitrogen) according to manufacturer's instruction. Briefly, pAD-XBP1s T48A, pAD-XBP1s S61A, pAd-XBP1s T48A/S61A and pAd-MKK6Glu were linearized by restriction endonuclease digestion with PacI and transfected to 293A cells by Lipofectamine. The media was changed with fresh media every other day until the cytopathic effect was observed. When cytopathic effect reached to 80%, cells were collected by centrifugation. The pellet was resuspended in PBS and subjected to freezing and thawing cycles at −80° C. and 37° C. for 4 times. The supernatant containing the virus was prepared by centrifugation at 4,000 rpm for 20 min at room temperature. Ad-XBP s and Ad-Cre were generated as described previously (Ozcan, L., et al. (2009) Cell metabolism 9:35-51). For infection, cells were incubated with adenovirus in reduced volume of medium containing 1% FBS and antibiotics. Cells were gently rocked every 15 min for 1 h to increase efficiency of infection, and then fresh medium were added and cells were incubated for additional 15 h or 23 h.
Cells were lysed in lysis buffer (25 mM Tris-HCl, pH 7.4; 10 mM NaF; 10 mM Na4P207; 2 mM Na3VO4; 1 mM EGTA; 1 mM EDTA; 1% NP-40; 10 μg/ml Leupeptin; 10 μg/ml Aprotinin; 1 mM PMSF and 20 nM Okadaic acid). After 20 min-rotation at 4° C., cell lysates were centrifuged at 13,200 rpm for 20 min at 4° C. Supernatants were collected and protein concentration was quantified by using Protein Assay Kit (Bio-Rad). The concentrations of protein were normalized with lysis buffer to have equivalent amounts of protein and volume. Protein was denatured by boiling at 100° C. for 5 min in Laemmli buffer. The lysates were cooled to room temperature before loading for western blot analysis.
Western blot analysis was performed as previously described (Ozcan, L., et al. (2009) Cell metabolism 9:35-51). Samples from cell lysates or tissue lysates were resolved by SDS-PAGE and then transferred to polyvinylidene fluoride (PVDF) membrane. After 1 h blocking at room temperature using 10% blocking reagent (Roche), membrane was incubated overnight with primary antibody in Tris-buffered saline solution/Tween (TBST) containing 10% blocking reagent at 4° C. After the incubation, membrane was washed three times in TBST and incubated with secondary antibody for 1 h at room temperature. After three-time washing in TBST, membrane was developed using a chemiluminescence assay system (Roche) and exposed to Kodak films. Relative protein levels were quantified by Image J program.

XBP1s [4] = experiment: XBP1s levels in Ad-XBP1s-infected Fao cells; format: cell-based; settings: Ad-XBP1s-infected Fao cells (rat hepatoma)
Method: as §1
as §2, with “Ad-XBP s and Ad-Cre were generated as described previously (Ozcan, L., et al. (2009) Cell metabolism 9:35-51). For infection, cells were incubated with adenovirus in reduced volume of medium containing 1% FBS and antibiotics. Cells were gently rocked every 15 min for 1 h to increase efficiency of infection, and then fresh medium were added and cells were incubated for additional 15 h or 23 h.” left out
Western blot analysis was performed as previously described (Ozcan, L., et al. (2009) Cell metabolism 9:35-51). […] Relative protein levels were quantified by Image J program.

XBP1s [5] = experiment: Cytoplasmic and nuclear XBP1s protein in cells; format: cell-based, mouse; settings: mutant XBP1s expressed in cells, anisomycin 25 ng/ml, vs WT
Method: Cytoplasmic and nuclear protein fractions were extracted from cells by using nuclear protein extraction kit from Active Motif (Carlsbad, Calif.). Cells were maintained in 10 cm tissue culture dishes for nuclear/cytoplasmic extraction. After removal of the media, cells were washed with ice-cold phosphate buffered saline (PBS) containing phosphatase inhibitors. Subsequently, 3 ml of ice-cold PBS with phosphatase inhibitors was added and then cells were scrapped out of the dish. Collected cells were separated from PBS by centrifugation for 5 minutes at 500 rpm and resuspended with 500 μl of 1× hypotonic buffer. After 15-minute incubation in hypotonic buffer on ice, 25 μl of supplied detergent was added and cells were vortexed 10 seconds. Cells were centrifuged for 30 seconds at 14,000×g and supernatant (cytoplasmic fraction) was saved for further analysis. Remaining pellet, which contains nuclei, were resuspended with 50 μl of provided complete lysis buffer with 1 mM dithiothreitol (DTT), vortexed 10 seconds, and incubated for 30 minutes on ice. After 30-second vortexing and 10-minute centrifugation at 14,000×g, the supernatant was collected and analyzed as nuclear fraction.

C[S+]([O-])c1ccc(-c2nc(-c3ccncc3)c(-c3ccc(F)cc3)[nH]2)cc1 (stereo not drawn) [SB203580]
GRP78 expression increase in liver after re-feeding (p38 MAPK): but not in the inhibitor-treated group
XBP1s mRNA levels in the liver of re-fed mice (p38 MAPK): significantly increased
ATF2 phosphorylation (p38 MAPK; lean C57BL6 mice): dramatic reduction in phosphorylation
XBP1s nuclear translocation in the liver after re-feeding (p38 MAPK; lean C57BL6 mice, starved 24 hours, refed one hour): completely absent
effect of MKK6Glu on XBP1s (XBP1s [1]): blocked the effect of MKK6Glu on XBP1s
FBS-induced XBP1s nuclear translocation (XBP1s [2]): completely eliminated XBP1s nuclear translocation
XBP1s splicing (XBP1s [2]): without altering XBP1s splicing
anisomycin-induced increase in XBP1s levels (XBP1s [3]; SB203580 10 μM 30 minutes, then anisomycin 25 ng/ml two hours): completely abolished

CCOc1nc(NC(=O)Cc2cc(OC)ccc2OC)cc(N)c1C#N [JNK inhibitor VIII]
effect on anisomycin-mediated upregulation of XBP1s protein levels (XBP1s [3]; JNK inhibitor 10 μM 30 minutes, then anisomycin 25 ng/ml two hours): no effect

TNFα
XBP1s levels (XBP1s [4]): dramatically upregulating their XBP1s levels
XBP1s protein levels (XBP1s [3]; Ad-XBP1s-infected MEFs, increasing doses, two hours): markedly increased XBP1s protein levels
XBP1s protein levels (XBP1s [3]; JNK1,2−/− cells): significant increase in XBP1s levels
XBP1s levels (XBP1s [3]; MKK4,7−/− cells): significant increase in XBP1s levels

B1: T48A: mutant XBP1s with Thr48 residue mutated to alanine (protein)
chain: MVVVAAAPSAATAAPKVLLLSGQPASGGRALPLMVPGPRAAGSEASGAPQARKRQRLTHLSPEEKALRRKLKNRVAAQTARDRKKARMSELEQQVVDLEEENHKLQLENQLLREKTHGLVVENQELRTRLGMDTLDPDEVPEVEAKGSGVRLVAGSAESAAGAGPVVTSPEHLPMDSDTVASSDSESDILLGILDKLDPVMFFKCPSPESASLEELPEVYPEGPSSLPASLSLSVGTSSAKLEAINELIRFDHVYTKPLVLEIPSETESQTNVVVKIEEAPLSSSEEDHPEFIVSVKKEPLEDDFIPELGISNLLSSSHCLRPPSCLLDAHSDCGYEGSPSPFSDMSSPLGTDHSWEDTFANELFPQLISV
decrease of XBP1s nuclear translocation (XBP1s [5]): about 49%

B2: S61A: amino acid substitution mutant XBP1s at Ser61 (protein)
chain: MVVVAAAPSAATAAPKVLLLSGQPASGGRALPLMVPGPRAAGSEASGTPQARKRQRLTHLAPEEKALRRKLKNRVAAQTARDRKKARMSELEQQVVDLEEENHKLQLENQLLREKTHGLVVENQELRTRLGMDTLDPDEVPEVEAKGSGVRLVAGSAESAAGAGPVVTSPEHLPMDSDTVASSDSESDILLGILDKLDPVMFFKCPSPESASLEELPEVYPEGPSSLPASLSLSVGTSSAKLEAINELIRFDHVYTKPLVLEIPSETESQTNVVVKIEEAPLSSSEEDHPEFIVSVKKEPLEDDFIPELGISNLLSSSHCLRPPSCLLDAHSDCGYEGSPSPFSDMSSPLGTDHSWEDTFANELFPQLISV
decrease of XBP1s nuclear translocation (XBP1s [5]): about 79%
